Series [1] is described as follows: Qualitative non-targeted LC-HRMS analysis of AR compounds in rat plasma after oral AR or MBST. It is filed as in vivo. The conditions noted are these: for Detection in plasma of rats treated with AR or MBST (non-targeted analysis): po. On the procedure:
Extract powders of AR or MBST were suspended in distilled water and orally administered to rats having fasted for approximately 16 h. The dose of AR was set at 2 g/kg, and the MBST doses were set at 1 and 2 g/kg. 1 g/kg MBST contained 578 µg/kg, 147 µg/kg, 226 µg/kg, 426 µg/kg asarinin, sesamin, methyl kakuol, and amide A, respectively. The doses were chosen based on a previous pharmacological study of MBST using rats.
According to previous pharmacokinetic studies of herbal medicines, many of the components were quickly absorbed into the bloodstream, thereby providing the rationale for a sampling time at 1 h. Blood was centrifuged at 1200× g at 4 °C for 30 min to obtain plasma; then, the sample was stored at −80 °C until LC-HRMS analysis. […]
The plasma samples were collected at 1 h after MBST administration in case of both the qualitative (non-targeted) analysis and the quantitative (targeted) analysis.
The plasma samples of AR- or MBST-treated rats collected at 1 h post-administration were pretreated by deproteinization using methanol before the LC-HRMS analysis as follows: 100 µL plasma sample was mixed with 500 µL methanol, and the resultant solution was vortexed for 2 min. The mixture was centrifuged at 7000× g at 4 °C for 5 min. The supernatant was dried using a centrifugal evaporator, and the dried residue was dissolved in 100 μL of the initial LC mobile phase which is composed of 0.1 vol% formic acid in water/acetonitrile (99.9/0.1, v/v) and recentrifuged at 7000× g at 4 °C for 5 min. Finally, a 5 μL aliquot of the supernatant was injected into the LC-HRMS system comprised of an Acquity Ultra-Performance Liquid Chromatography System (Waters, Milford, MA, USA) and a Xevo G2-XS quadrupole time-of-flight MS (Waters) and was chromatographically separated using an ACQUITY UPLC HSS T3 column (2.1 × 150 mm I.D., 1.8-μm particle size; Waters) with an ACQUITY UPLC HSS T3 VanGuard Pre-column (2.1 mm × 5 mm I.D., 1.8-μm particle size; Waters) at 40 °C. The mobile phase consisted of solution A (0.1% formic acid, v/v) and solution B (acetonitrile) with a gradient of solution B (0.1%, 0 min; 99%, 24 min; v/v) at a flow rate of 0.4 mL/min. The analysis of the mass spectrometer fit with an electrospray ionization probe with sensitivity mode was performed for both the positive and negative ion mode. The resolution of the mass spectrometer was set at >20,000. For MS^E experiments, two acquisition functions with different collision energies were created: a low-energy function with a collision energy of 6 eV and a high-energy function with collision energy ranging from 15 to 40 eV.

A further series concerns the target T1, human TRPV4 (Homo sapiens, UniProt Q9HBA0).
T1 construct: Each full-length human TRPA1, TRPV1, TRPV4, and TRPM8 coding regions were introduced into a pcDNA4/TO vector; expressed in transfected cells; host or cells: T-REx-293 cells (tetracycline-induced, pcDNA4/TO vector)
Briefly: Ca2+ influx assay in TRPV4-expressing T-REx-293 cells. It is filed as cell-based. The settings on record: 10 µmol/L test compound, relative to 4 µmol/L GSK1016790A; for activation at 10 µM: T-REx-293, read-out: % of Activation Compared to Positive Control against Each Subfamily of TRP Channel TRPV4. The method, then:
Each full-length human TRPA1, TRPV1, TRPV4, and TRPM8 coding regions were introduced into a pcDNA4/TO vector (Thermo Fisher Scientific, Waltham, MA, USA) and transfected into T-REx-293 cells (Thermo Fisher Scientific) to obtain stable cell lines expressing human TRPA1, TRPV1, TRPV4, and TRPM8. Cells were cultured in DMEM with 10% FBS, 4 mmol/L L-glutamine, and penicillin/streptomycin.
Cells were suspended in medium with 1 µg/mL tetracycline and seeded in poly-D-lysine coated 96-well plate at 2.5 × 10^4 cells/well. After overnight culture, the cells were used for Ca^2+ influx assay.
The Ca^2+ influx assay was performed using a FLIPR Calcium 5 Assay Kit (Molecular Devices, Sunnyvale, CA, USA) according to previously reported methods with minor modifications. In brief, cells were incubated with 80 µL Ca^2+-chelating dye dissolved in assay buffer at pH 7.4 (Hanks’ Balanced Salt Solution containing 20 mmol/L of N-2-hydroxyethylpiperazine-N’-2-ethanesulfonic acid) at room temperature for 30 min. The plates were assayed using a FlexStation 3 Microplate Reader (Molecular Devices). The fluorescence intensity was traced entirely for 80 s. The baseline of fluorescence was measured for 20 s before adding 20 µL of test compound (final concentration, 10 µmol/L). The response was expressed as percentage activation using the relative fluorescence units (RFU) (% activation = 100 × ((RFUmax − RFUbaseline)/RFUbaseline) − 100). Furthermore, the activities of each test compound against several subfamilies of TRP channels were represented as the relative enhancement of Ca^2+ influx of each positive control, indicated as follows: 20 µmol/L of allyl isothiocyanate (an agonist of TRPA1), 2 µmol/L of capsaicin (an agonist of TRPV1), 4 µmol/L of GSK1016790A (an agonist of TRPV4), and 20 µmol/L of icilin (an agonist of TRPM8). The dose–response curve was fitted to the sigmoidal dose-response equation (top, the max response of each compound), and EC50 values were calculated using GraphPad Prism 7 software (GraphPad, San Diego, CA, USA).

The record followed here is publication PMC7570662, “In Vivo Pharmacokinetic Analysis Utilizing Non-Targeted and Targeted Mass Spectrometry and In Vitro Assay against Transient Receptor Potential Channels of Maobushisaishinto and Its Constituent Asiasari Radix” (Molecules, 2020).

T1 sequence (Q9HBA0 whole entry): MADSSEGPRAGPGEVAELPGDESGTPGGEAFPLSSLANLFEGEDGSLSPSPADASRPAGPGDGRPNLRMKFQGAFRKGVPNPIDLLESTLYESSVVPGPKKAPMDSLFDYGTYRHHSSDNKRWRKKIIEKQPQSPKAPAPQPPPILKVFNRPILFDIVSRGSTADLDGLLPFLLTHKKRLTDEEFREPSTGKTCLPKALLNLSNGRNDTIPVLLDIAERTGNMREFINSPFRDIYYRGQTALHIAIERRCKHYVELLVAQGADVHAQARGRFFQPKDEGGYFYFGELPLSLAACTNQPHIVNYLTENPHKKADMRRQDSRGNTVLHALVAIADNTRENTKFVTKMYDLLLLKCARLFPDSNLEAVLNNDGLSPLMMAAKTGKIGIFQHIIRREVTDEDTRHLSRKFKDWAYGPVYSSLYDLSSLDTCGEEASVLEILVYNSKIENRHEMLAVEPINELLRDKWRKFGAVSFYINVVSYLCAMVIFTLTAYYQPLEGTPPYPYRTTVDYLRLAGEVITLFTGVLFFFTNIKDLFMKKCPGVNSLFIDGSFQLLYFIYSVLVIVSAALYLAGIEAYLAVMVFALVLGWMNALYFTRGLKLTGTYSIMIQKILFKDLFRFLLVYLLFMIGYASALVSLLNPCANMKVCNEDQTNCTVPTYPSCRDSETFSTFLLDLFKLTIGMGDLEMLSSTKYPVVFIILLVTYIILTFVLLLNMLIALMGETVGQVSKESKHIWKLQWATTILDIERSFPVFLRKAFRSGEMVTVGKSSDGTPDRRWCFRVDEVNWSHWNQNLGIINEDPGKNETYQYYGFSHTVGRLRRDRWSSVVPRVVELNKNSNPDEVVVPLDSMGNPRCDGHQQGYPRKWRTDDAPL

For the compound `C/C=C/C=C\CC/C=C/C=C/C(=O)NCC(C)C` [Amide A, (2E,4E,8Z,10E)-N-isobutyl-2,4,8,10-dodecatetraenamide], in series [1] (rat, in vivo), the “Metabolites found in AR- or MBST-treated plasma” value was “metabolized into an alkylated and a water adducted + alkylated form”. Besides, the activation at 10 µM at human TRPV4 amounted to 2.7%.

As to `c1cc2c(cc1[C@H]1OC[C@H]3[C@@H]1CO[C@H]3c1ccc3c(c1)OCO3)OCO2` [Asarinin, (−)-Asarinin], in series [1] (rat, in vivo), the “Detection in plasma of rats treated with AR or MBST (non-targeted analysis)” value is given as “not detected”. In addition, the activation at 10 µM on human TRPV4 was -0.1%.

Consider `c1cc2c(cc1[C@H]1OC[C@H]3[C@@H]1CO[C@@H]3c1ccc3c(c1)OCO3)OCO2` [Sesamin], for which the “Detection in plasma of rats treated with AR or MBST (non-targeted analysis)” value in series [1] (rat, in vivo) is listed as “not detected”. Moreover, on human TRPV4, the activation at 10 µM is -0.1%.

Take `CCC(=O)c1cc2c(cc1OC)OCO2` [Methyl kakuol]: the “AR-Treated Rat Plasma (detection of compound)” value in series [1] (rat plasma 1 h after oral 2 g/kg AR, n = 1, LC-HRMS) was “+ (The number of plus signs represents the sample number in which the compound was detected among AR-treated rat plasma (n = 1) and MBST-treated rat plasma (n = 3))”. Further, the “MBST-Treated Rat Plasma (detection of compound)” value in series [1] (rat plasma 1 h after oral 2 g/kg MBST, n = 3, LC-HRMS) is “+ + + (The number of plus signs represents the sample number in which the compound was detected among AR-treated rat plasma (n = 1) and MBST-treated rat plasma (n = 3))”. Further, the “Metabolites found in AR- or MBST-treated plasma” value in series [1] (rat plasma, non-targeted LC-HRMS, phase I and II metabolite exploration) was “metabolized into a sulfate conjugate and a dehydrogenated + sulfate conjugate form”. For the same compound, the “% of Activation Compared to Positive Control against Each Subfamily of TRP Channel TRPV4” value at human TRPV4 came to 0.9%.
